Source: patent US20090220997A1, “Stimulating G Protein-Coupled Receptors” (MAYO FOUNDATION FOR MEDICAL EDUCATION AND RESEARCH, priority 2005, published 2009)
Blank lines part the entries; values can stand above or below the substance they belong to. Bridge positions count the residues as written; N and C are the ends. Square brackets hold non-standard residues; d marks the D form. Ends that are not written are not given here. Dap = NC[C@H](N)C(=O)O

Key:
[1] = test system: Class B receptors; assay: cAMP accumulation in cells expressing Class B receptors; format: cell-based; conditions: receptors other than the corresponding receptor
From the text: (§1) FIG. 4 contains a series of graphs plotting cAMP accumulation versus concentration of amino-terminal polypeptides from the calcitonin (residues 73-80; SEQ ID NO:6) and VPAC1 (residues 51-71; SEQ ID NO:4) receptors that were used to stimulate cells expressing Class B receptors.
(§2) FIG. 6 contains a series of graphs plotting cAMP accumulation versus concentration of the WDN tripeptide or amino-terminal polypeptides from the VPAC1 receptor (residues 51-71; SEQ ID NO:4), the calcitonin receptor (residues 73-80; SEQ ID NO:6), and the GLP1R (residues 63-70; SEQ ID NO:22) that were used to stimulate cells expressing Class B receptors as indicated.
(§3) Polypeptides representing the analogous region of the amino terminus of the Class B G protein-coupled calcitonin and VPAC1 receptors (FIG. 1) were also synthesized. […] The agonist activity of these endogenous polypeptides was not limited to the corresponding receptors. The polypeptides were also active at other structurally-related family members (FIG. 4).
(§4) Additional experiments were performed and curves were regenerated (FIG. 6), as described herein and as described elsewhere (Dong et al., Mol. Pharmacol., 70(1):206-13 (2006)). […] Each polypeptide used to generate the data presented in FIG. 6 was a cyclic polypeptide, except for the VPAC1(51-71) polypeptide. […]

[2] = molecular target: T1, calcitonin receptor (Homo sapiens, UniProt P30988); assay: cAMP accumulation in cells expressing the calcitonin receptor; format: cell-based
T1 sequence (P30988 25-474): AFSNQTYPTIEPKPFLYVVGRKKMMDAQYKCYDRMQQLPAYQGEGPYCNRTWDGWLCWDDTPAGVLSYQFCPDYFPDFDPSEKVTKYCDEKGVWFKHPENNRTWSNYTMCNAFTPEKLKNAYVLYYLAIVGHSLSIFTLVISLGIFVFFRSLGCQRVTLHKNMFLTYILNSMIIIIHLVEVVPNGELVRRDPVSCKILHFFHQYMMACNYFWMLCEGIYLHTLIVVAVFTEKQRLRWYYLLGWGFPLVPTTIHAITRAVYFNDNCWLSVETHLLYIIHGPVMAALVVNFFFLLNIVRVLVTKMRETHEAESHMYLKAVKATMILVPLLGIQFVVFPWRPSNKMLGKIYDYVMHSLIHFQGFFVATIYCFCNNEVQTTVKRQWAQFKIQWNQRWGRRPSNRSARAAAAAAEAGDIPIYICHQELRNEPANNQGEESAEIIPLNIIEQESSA
From the text: as §1, §3

[3] = molecular target: human GLP1R (Homo sapiens, UniProt P43220); assay: cAMP accumulation in cells expressing the GLP1R; format: cell-based
Description: as §2
Additional experiments were performed and curves were regenerated (FIG. 6), as described herein and as described elsewhere (Dong et al., Mol. Pharmacol., 70(1):206-13 (2006)). […] Each polypeptide used to generate the data presented in FIG. 6 was a cyclic polypeptide, except for the VPAC1(51-71) polypeptide. Linear versions of each polypeptide were also tested and found to behave in a similar manner as the corresponding cyclic polypeptides, with similar potencies and efficacies.

[4] = molecular target: T2, secretin receptor (Rattus norvegicus, UniProt P23811); assay: cAMP accumulation in CHO cells expressing the secretin receptor (CHO-SecR); format: cell-based; conditions: for agonist activity (stimulation of cAMP accumulation): 30 min at 37° C.; for potency (cAMP accumulation), relative comparison: secretin receptor (SecR)
T2 construct: expressed in transfected cells; host or cells: CHO (CHO-SecR)
From the text: (§5) FIG. 2 contains a series of graphs plotting accumulation of cAMP versus concentration of polypeptide used to stimulate cells. Presented in panel A are curves of cAMP accumulation in Chinese hamster ovary cells expressing the secretin receptor (CHO-SecR), and in the cells of the parental CHO cell line not expressing the secretin receptor, in response to increasing concentrations of secretin or a synthetic polypeptide (SEQ ID NO:1) corresponding to the region of the amino terminus of the secretin receptor between the first and third conserved cysteine residues, Cys^24 and Cys^53 (corresponding to residues 46 to 75 of GenBank Accession Number AAH81781). Presented in panel B are curves of cAMP accumulation in CHO-SecR cells in response to increasing concentrations of the indicated pentapeptide (SEQ ID NO:3), tripeptides, or dipeptides. Presented in panel C are curves of cAMP accumulation in CHO-SecR cells in response to increasing concentrations of a linear tripeptide, cyclic tripeptides, or a myristolated cyclic tripeptide. Adherent cells that were 75 percent confluent were stimulated with the polypeptide in Krebs-Ringers-HEPES medium for 30 min at 37° C. Cellular cAMP was quantified as previously reported (Holtmann et al., J. Biol. Chem. 270, 14394 (1995)). Values represent means±S.E.M. of data from a minimum of three independent assays performed in duplicate. Myr indicates myristoylated cyclic tripeptide.
It was determined whether a synthetic polypeptide corresponding to the region of the secretin receptor amino terminus between residues 24 and 53 (FIG. 1), which shares no homology with any part of the natural agonist polypeptide, could act as an endogenous agonist ligand. […] The cAMP response was dependent on the concentration of the polypeptide. […] The polypeptide had no effect on cAMP levels in the parental CHO cell line, even at concentrations as high as 100 μM (FIG. 2A).

[5] = molecular target: T3, VPAC1 receptor (Rattus norvegicus, UniProt P30083); assay: cAMP accumulation in cells expressing the VPAC1 receptor; format: cell-based
T3 sequence (P30083 31-459): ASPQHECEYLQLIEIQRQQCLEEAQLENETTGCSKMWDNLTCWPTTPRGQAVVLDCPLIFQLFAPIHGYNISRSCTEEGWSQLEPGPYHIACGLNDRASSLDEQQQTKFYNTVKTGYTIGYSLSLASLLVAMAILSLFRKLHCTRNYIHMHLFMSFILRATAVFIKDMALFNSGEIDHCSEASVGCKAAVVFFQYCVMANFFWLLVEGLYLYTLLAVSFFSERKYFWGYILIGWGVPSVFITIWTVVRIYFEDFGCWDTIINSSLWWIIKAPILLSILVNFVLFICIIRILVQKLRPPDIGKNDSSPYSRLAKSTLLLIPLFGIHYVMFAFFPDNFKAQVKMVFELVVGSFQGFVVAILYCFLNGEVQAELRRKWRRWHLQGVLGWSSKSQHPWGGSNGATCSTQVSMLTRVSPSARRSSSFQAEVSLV
From the text: as §1, §2, §3, §4

[6] = test system: parental CHO cell line not expressing the secretin receptor; assay: cAMP accumulation in parental CHO cell line; format: cell-based, Chinese hamster; conditions: concentrations as high as 100 μM
From the text: as §5, with “Presented in panel C are curves of cAMP accumulation in CHO-SecR cells in response to increasing concentrations of a linear tripeptide, cyclic tripeptides, or a myristolated cyclic tripeptide. Adherent cells that were 75 percent confluent were stimulated with the polypeptide in Krebs-Ringers-HEPES medium for 30 min at 37° C.” left out, “Values represent means±S.E.M. of data from a minimum of three independent assays performed in duplicate. Myr indicates myristoylated cyclic tripeptide.” left out
It was determined whether a synthetic polypeptide corresponding to the region of the secretin receptor amino terminus between residues 24 and 53 (FIG. 1), which shares no homology with any part of the natural agonist polypeptide, could act as an endogenous agonist ligand. […]

[7] = test system: Class A G protein-coupled cholecystokinin receptor; assay: cAMP levels in CHO cell lines expressing cholecystokinin receptor; format: cell-based; conditions: CHO cell lines expressing high concentrations of cholecystokinin receptor

T2 sequence (P23811 26-449): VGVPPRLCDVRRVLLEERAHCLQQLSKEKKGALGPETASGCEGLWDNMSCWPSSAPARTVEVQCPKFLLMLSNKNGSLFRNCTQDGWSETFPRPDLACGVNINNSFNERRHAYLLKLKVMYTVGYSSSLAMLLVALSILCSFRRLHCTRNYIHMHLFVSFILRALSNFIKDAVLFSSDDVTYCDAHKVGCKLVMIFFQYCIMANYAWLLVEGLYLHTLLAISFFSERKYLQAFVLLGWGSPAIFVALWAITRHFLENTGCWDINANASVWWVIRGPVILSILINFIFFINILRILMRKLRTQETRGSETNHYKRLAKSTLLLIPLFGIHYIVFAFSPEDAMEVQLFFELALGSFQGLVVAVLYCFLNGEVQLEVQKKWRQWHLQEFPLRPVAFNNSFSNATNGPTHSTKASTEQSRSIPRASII
Sequence of human GLP1R (P43220 24-463 L260F/A316G): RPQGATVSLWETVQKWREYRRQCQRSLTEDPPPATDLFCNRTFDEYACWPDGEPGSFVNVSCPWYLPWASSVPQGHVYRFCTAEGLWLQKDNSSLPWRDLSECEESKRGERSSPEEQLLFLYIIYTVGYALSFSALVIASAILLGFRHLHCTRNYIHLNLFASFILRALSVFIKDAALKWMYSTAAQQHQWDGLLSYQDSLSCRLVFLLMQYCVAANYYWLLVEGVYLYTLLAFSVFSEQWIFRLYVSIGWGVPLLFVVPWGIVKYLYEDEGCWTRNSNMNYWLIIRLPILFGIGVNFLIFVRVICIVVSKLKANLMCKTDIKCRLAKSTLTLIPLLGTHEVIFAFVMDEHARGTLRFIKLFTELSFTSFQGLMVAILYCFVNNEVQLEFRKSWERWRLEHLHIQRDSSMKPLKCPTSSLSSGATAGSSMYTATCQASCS

agonist activity (cAMP accumulation) [2]: low potency agonist activity
Substance: CTR(73-80): polypeptide corresponding to amino acids 73 to 80 of the human calcitonin receptor ([Dap]NRTWDGWLD; not fully specified (bridges); listed as Homo sapiens)
activity at other structurally-related family members [1]: also active

agonist activity (cAMP accumulation) [3]: active as an agonist | agonist activity (stimulation of cAMP accumulation) ([4]; CHO-SecR cells): active as an agonist | agonist activity (cAMP accumulation) [5]: active as an agonist
Substance: GLP1R(63-70): polypeptide corresponding to amino acid residues 63 to 70 of the human GLP1R (NRTFDEYA; listed as Homo sapiens)

agonist activity (stimulation of cAMP accumulation) ([4]; CHO-SecR cells): weakly potent agonist
Substance: SecR(24-53): polypeptide corresponding to amino acids 46 to 75 of the rat secretin receptor (SEQ ID NO:1) ([Dap]CLQQLSKEKKGALGPETASGSEGLWDNMSCD; cysteine pairing not given here)
effect on cAMP levels [6]: no effect | effect on cAMP levels [7]: did not affect cAMP levels

agonist activity (cAMP accumulation) [3]: active as agonists | agonist activity (cAMP accumulation) [5]: low potency agonist activity
Substance: VPAC1(51-71): polypeptide corresponding to amino acids 51 to 71 of the rat VPAC1 receptor ([Dap]LEEAQLENETTGSSKMWDNLTD; not fully specified (bridges))
activity at other structurally-related family members [1]: also active

agonist activity (cAMP accumulation) [3]: active as agonists | efficacy (cAMP accumulation) ([4]; CHO-SecR cells): maintained full efficacy
Substance: cyclic WDN (tryptophan-aspartate-asparagine) tripeptide
potency (cAMP accumulation), relative comparison [4]: enhanced relative to that of the linear polypeptide

Substance: leucine-tryptophan-aspartate-asparagine-methionine [LWDNM]
agonist activity (stimulation of cAMP accumulation) ([4]; CHO-SecR cells): Agonist activity was maintained

potency (cAMP accumulation), relative comparison [4]: further enhanced
Substance: myristoylated cyclic tripeptide: cyclic WDN polypeptide modified by fatty acid acylation (myristoyl group) ([Dap]WDND; lactam N-C; also: myristoyl group, site not given here)

Substance: tryptophan-aspartate-asparagine [linear tripeptide]
agonist activity (stimulation of cAMP accumulation) ([4]; CHO-SecR cells): stimulated cAMP accumulation
